Values of other authors in patent publication US6667342B1, “Benzenesulfonamide-derivatives and their use as medicaments” (Astrazeneca AB, priority 1998, dated 2003).

Question: For O=C(O)C(Cl)Cl [DCA, dichloroacetic acid], which “activity of PDH” value (PDH; after acute administration in animals (Vary et al. 1988)) is on record?
Answer: increases

Question: What about the “proportion of PDH in its active form” value (PDH; single administration, 150 mg/kg, intraperitoneally (Vary et al. 1988)) of the same molecule?
Answer: increased

Question: What about the glycaemia (Stacpoole et al. 1978) of the same molecule?
Answer: reducing glycaemia

Question: What about the plasma glucose (after repeated administration (Evans and Stacpoole 1982)) of the same molecule?
Answer: significant decrease
